BindingDB's records for doi:10.1016/j.bmcl.2018.04.050 (Abbvie, 2018)

Key:
[1] = Binding affinity to thrombin cleavable N-terminal 6His tagged and 13C-IVLM labeled human KDM4A tandem TUDOR domain (897 to 1011 residues) expressed in Escherichia coli BL21(DE3)-T1R assessed as apparent Kd for H3(1-10)K4me3 peptide at 1 mM by ITC method (Rvb = 5.2 +/- 0.3 uM)
[2] = Binding affinity to thrombin cleavable N-terminal 6His tagged and 13C-IVLM labeled human KDM4A tandem TUDOR domain (897 to 1011 residues) expressed in Escherichia coli BL21(DE3)-T1R assessed as apparent Kd for H3(1-10)K4me3 peptide at 0.5 mM by ITC method (Rvb = 5.2 +/- 0.3 uM)
[3] = Binding affinity to thrombin cleavable N-terminal 6His tagged and 13C-IVLM labeled human KDM4A tandem TUDOR domain (897 to 1011 residues) expressed in Escherichia coli BL21(DE3)-T1R assessed as apparent Kd for H3(1-10)K4me3 peptide at 2.5 mM by ITC method (Rvb = 5.2 +/- 0.3 uM)

CN(C)C[C@H]1C2CCC(c3ccccc3)(C2)[C@H]1O (stereo partly drawn)
Kd [1]: 22.7 µM
Kd [2]: 15.5 µM
Kd [3]: 55.1 µM
